Measurements reported in US9096559B2, “4-carboxybenzylamino derivatives as histone deacetylase inhibitors” (Merck Sharp & Dohme Corp., priority 2007, dated 2015).

Key:
[1] = molecular target: histone deacetylase, subtype 1 (HDAC1) (Homo sapiens (Human), UniProt Q13547); assay: HDAC1-Flag in vitro deacetylation assay; assay type: biochemical; details: IP = inflection point; read-out: HDAC1 IP (inflection point)
Method: Novel compounds were tested for their ability to inhibit histone deacetylase, subtype 1 (HDAC1) using an in vitro deacetylation assay. The enzyme source for this assay was an epitope-tagged human HDAC1 complex immuno-purified from stably expressing mammalian cells. The substrate consisted of a commercial product containing an acetylated lysine side chain (BIOMOL Research Laboratories, Inc., Plymouth Meeting, Pa.). Upon deacetylation of the substrate by incubation with the purified HDAC1 complex, a fluorophore is produced that is directly proportional to the level of deacetylation.

[2] = system: human cervical cancer (HeLa) and colon carcinoma (HCT116) cells; assay: ATP (Vialight) cell proliferation assay, 72 hr; assay type: cell-based; details: IP = inflection point, cell line not given, read-out: Prol-72 hr IP (inflection point)
Method: The novel compounds of the present invention were tested for their ability to inhibit proliferation of the human cervical cancer (HeLa) and colon carcinoma (HCT116) cells.
In this assay, also referred to as the Vialight Assay, cellular ATP levels are measured as a means of quantifying cellular proliferation. This assay makes use of a bioluminescent method from Cambrex (ViaLight PLUS, cat. #LT07-121). In the presence of ATP, luciferase converts luciferin to oxyluciferin and light. The amount of light produced (emission at 565 nm) is measured and correlates with a relative amount of proliferation. Human cervical cancer (HeLa) or colon carcinoma (HCT116) cells were incubated with vehicle or increasing concentrations of compound for 48, 72 or 96 hours. Cell proliferation was quantified by adding the cell lysis reagent (provided in the Vialight assay kit) directly to culture wells, followed by addition of the ATP-monitoring reagent (containing luciferase/luciferin). The amount of light produced is then measured (emission at 565 nm). The quantity of light produced, as measured by […], is directly proportional to the number of living cells in culture.

histone deacetylase, subtype 1 (HDAC1), sequence (Q13547 whole entry): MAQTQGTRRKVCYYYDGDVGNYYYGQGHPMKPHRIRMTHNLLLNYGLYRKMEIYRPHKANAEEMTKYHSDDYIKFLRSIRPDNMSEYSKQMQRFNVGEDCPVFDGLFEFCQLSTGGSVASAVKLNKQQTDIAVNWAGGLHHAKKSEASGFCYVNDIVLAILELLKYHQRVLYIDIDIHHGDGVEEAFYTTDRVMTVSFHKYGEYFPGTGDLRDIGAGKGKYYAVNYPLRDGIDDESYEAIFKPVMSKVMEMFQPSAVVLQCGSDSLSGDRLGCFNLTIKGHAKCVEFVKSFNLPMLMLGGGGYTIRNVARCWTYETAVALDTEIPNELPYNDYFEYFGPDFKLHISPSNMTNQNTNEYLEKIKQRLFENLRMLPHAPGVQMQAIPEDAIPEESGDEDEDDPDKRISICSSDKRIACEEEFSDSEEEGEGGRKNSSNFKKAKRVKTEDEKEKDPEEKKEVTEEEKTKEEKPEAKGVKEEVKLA

Row | IC50 [1] | IC50 [2] | SMILES
1 | 21 nM | 200 nM | Nc1ccc(-c2ccccc2)cc1NC(=O)c1ccc(CNC(=O)C2CCCC2)cc1 [Example 33, N-(4-aminobiphenyl-3-yl)-4-{[(cyclopentylcarbonyl)amino]methyl}benzamide]
2 | 72 nM | 310 nM | Nc1ccc(-c2ccccc2)cc1NC(=O)c1ccc(CNC(=O)Cc2ccccc2)cc1 [Example 34, N-(4-aminobiphenyl-3-yl)-4-{[(phenylacetyl)amino]methyl}benzamide]
3 | 19 nM | 160 nM | Nc1ccc(-c2ccccc2)cc1NC(=O)c1ccc(CNC(=O)c2ccccc2)cc1 [Example 35, N-(4-aminobiphenyl-3-yl)-4-{[(phenylcarbonyl)amino]methyl}benzamide]
4 | 11 nM | 120 nM | CC(=O)NCc1ccc(C(=O)Nc2cc(-c3cccs3)ccc2N)cc1 [Example 36, 4-[(acetylamino)methyl]-N-[2-amino-5-(2-thienyl)phenyl]benzamide]
5 | 12 nM | 130 nM | CCC(=O)NCc1ccc(C(=O)Nc2cc(-c3cccs3)ccc2N)cc1 [Example 37, N-[2-amino-5-(2-thienyl)phenyl]-4-[(propanoylamino)methyl]benzamide]
6 | 12 nM | 150 nM | CCCC(=O)NCc1ccc(C(=O)Nc2cc(-c3cccs3)ccc2N)cc1 [Example 38, N-[2-amino-5-(2-thienyl)phenyl]-4-[(butanoylamino)methyl]benzamide]
7 | 15 nM | 96 nM | Nc1ccc(-c2cccs2)cc1NC(=O)c1ccc(CNC(=O)C2CC2)cc1 [Example 39, N-[2-amino-5-(2-thienyl)phenyl]-4-{[(cyclopropylcarbonyl)amino]methyl}benzamide]
8 | 16 nM | 150 nM | CC(C)C(=O)NCc1ccc(C(=O)Nc2cc(-c3cccs3)ccc2N)cc1 [Example 40, N-[2-amino-5-(2-thienyl)phenyl]-4-{[(2-methylpropanoyl)amino]methyl}benzamide]
9 | 16 nM | 170 nM | CC(C)(C)C(=O)NCc1ccc(C(=O)Nc2cc(-c3cccs3)ccc2N)cc1 [Example 41, N-[2-amino-5-(2-thienyl)phenyl]-4-{[(2,2-dimethylpropanoyl)amino]methyl}benzamide]
10 | 15 nM | 120 nM | CC(C)CC(=O)NCc1ccc(C(=O)Nc2cc(-c3cccs3)ccc2N)cc1 [Example 42, N-[2-amino-5-(2-thienyl)phenyl]-4-{[(3-methylbutanoyl)amino]methyl}benzamide]
11 | 11 nM | 130 nM | Nc1ccc(-c2cccs2)cc1NC(=O)c1ccc(CNC(=O)C2CCC2)cc1 [Example 43, N-[2-amino-5-(2-thienyl)phenyl]-4-{[(cyclobutylcarbonyl)amino]methyl}benzamide]
12 | 24 nM | 200 nM | Nc1ccc(-c2cccs2)cc1NC(=O)c1ccc(CNC(=O)CCc2ccccc2)cc1 [Example 44, N-[2-amino-5-(2-thienyl)phenyl]-4-{[(3-phenylpropanoyl)amino]methyl}benzamide]
13 | 20 nM | 140 nM | Nc1ccc(-c2cccs2)cc1NC(=O)c1ccc(CNC(=O)C2CCCC2)cc1 [Example 46, N-[2-amino-5-(2-thienyl)phenyl]-4-{[(cyclopentylcarbonyl)amino]methyl}benzamide]
14 | 16 nM | 150 nM | Nc1ccc(-c2cccs2)cc1NC(=O)c1ccc(CNC(=O)Cc2ccccc2)cc1 [Example 47, N-[2-amino-5-(2-thienyl)phenyl]-4-{[(phenylacetyl)amino]methyl}benzamide]
15 | 13 nM | 110 nM | Nc1ccc(-c2cccs2)cc1NC(=O)c1ccc(CNC(=O)c2ccccc2)cc1 [Example 48, N-[2-amino-5-(2-thienyl)phenyl]-4-{[(phenylcarbonyl)amino]methyl}benzamide]
16 | 10 nM | 170 nM | Nc1ccc(-c2cccs2)cc1NC(=O)c1ccc(CNC(=O)Cc2cccnc2)cc1 [Example 49, N-[2-amino-5-(2-thienyl)phenyl]-4-{[(pyridin-3-ylacetyl)amino]methyl}benzamide]
17 | 19 nM | 300 nM | Nc1ccc(-c2ccccc2)cc1NC(=O)c1ccc(CNC(=O)Cc2ccccn2)cc1 [Example 50, N-(4-aminobiphenyl-3-yl)-4-{[(pyridin-2-ylacetyl)amino]methyl}benzamide]

Row | IC50 [1] | IC50 [2] | SMILES
18 | 140 nM | 2100 nM | Nc1ccc(-c2ccccc2)cc1NC(=O)c1ccc(CNC(=O)Cc2cccnc2)cc1 [Example 51, N-(4-aminobiphenyl-3-yl)-4-{[(pyridin-3-ylacetyl)amino]methyl}benzamide]
19 | 15 nM | 250 nM | Nc1ccc(-c2ccccc2)cc1NC(=O)c1ccc(CNC(=O)Cc2ccncc2)cc1 [Example 52, N-(4-aminobiphenyl-3-yl)-4-{[(pyridin-4-ylacetyl)amino]methyl}benzamide]
20 | 16 nM | 340 nM | Nc1ccc(-c2ccccc2)cc1NC(=O)c1ccc(CNC(=O)CCc2cccnc2)cc1 [Example 53, N-(4-aminobiphenyl-3-yl)-4-{[(3-pyridin-3-ylpropanoyl)amino]methyl}benzamide]
21 | 12 nM | 160 nM | Nc1ccc(-c2cccs2)cc1NC(=O)c1ccc(CNC(=O)Cc2ccccn2)cc1 [Example 54, N-[2-amino-5-(2-thienyl)phenyl]-4-{[(pyridin-2-ylacetyl)amino]methyl}benzamide]
22 | 18 nM | 160 nM | Nc1ccc(-c2cccs2)cc1NC(=O)c1ccc(CNC(=O)Cc2ccncc2)cc1 [Example 55, N-[2-amino-5-(2-thienyl)phenyl]-4-{[(pyridin-4-ylacetyl)amino]methyl}benzamide]
23 | 13 nM | 160 nM | Nc1ccc(-c2cccs2)cc1NC(=O)c1ccc(CNC(=O)CCc2cccnc2)cc1 [Example 56, N-[2-amino-5-(2-thienyl)phenyl]-4-{[(3-pyridin-3-ylpropanoyl)amino]methyl}benzamide]
24 | 18 nM | 280 nM | Nc1ccc(-c2cccs2)cc1NC(=O)c1ccc(CNC(=O)[C@@H]2CCCN2)cc1 [Example 57, (2S)-N-[4-({[2-amino-5-(2-thienyl)phenyl]amino}carbonyl)benzyl]pyrrolidine-2-carboxamide]
25 | 24 nM | 380 nM | Nc1ccc(-c2ccccc2)cc1NC(=O)c1ccc(CNC(=O)[C@@H]2CCCN2)cc1 [Example 58, (2S)-N-(4-{[(4-aminobiphenyl-3-yl)amino]carbonyl}benzyl)pyrrolidine-2-carboxamide]
26 | 20 nM | 440 nM | Nc1ccc(-c2ccccc2)cc1NC(=O)c1ccc(CNC(=O)OCc2ccccn2)cc1 [Example 59, pyridin-2-ylmethyl[(4-{[(4-aminobiphenyl-3-yl)amino]carbonyl}phenyl)methyl]carbamate]
27 | 17 nM | 260 nM | CN(C)S(=O)(=O)NCc1ccc(C(=O)Nc2cc(-c3cccs3)ccc2N)cc1 [Example 60, N-[2-amino-5-(2-thienyl)phenyl]-4-({[(dimethylamino)sulfonyl]amino}methyl)benzamide]
28 | 10 nM | 1700 nM | Nc1ccc(-c2ccccc2)cc1NC(=O)c1ccc(CNc2ccncc2)cc1 [Example 61, N-(4-amino-3-biphenylyl)-4-[(4-pyridinylamino)methyl]benzamide]
29 | 10 nM | 3600 nM | CN(Cc1ccc(C(=O)Nc2cc(-c3ccccc3)ccc2N)cc1)c1ccncc1 [Example 62, N-(4-amino-3-biphenylyl)-4-{[methyl(4-pyridinyl)amino]methyl}benzamide]
30 | 13 nM | 670 nM | Cc1c(CNCc2ccc(C(=O)Nc3cc(-c4ccccc4)ccc3N)cc2)cnn1C [Example 63, N-(4-amino-3-biphenylyl)-4-({[(1,5-dimethyl-1H-pyrazol-4-yl)methyl]amino}methyl)benzamide]
31 | 18 nM | 540 nM | CNCCCN(C)Cc1ccc(C(=O)Nc2cc(-c3ccccc3)ccc2N)cc1 [Example 64, N-(4-amino-3-biphenylyl)-4-({methyl[3-(methylamino)propyl]amino}methyl)benzamide]
32 | 35 nM | 900 nM | CC(C)CNCc1ccc(C(=O)Nc2cc(-c3ccccc3)ccc2N)cc1 [Example 65, N-(4-amino-3-biphenylyl)-4-[(isobutylamino)methyl]benzamide]
33 | 23 nM | 1100 nM | COCC(C)NCc1ccc(C(=O)Nc2cc(-c3ccccc3)ccc2N)cc1 (centres unmarked) [Example 66, N-(4-amino-3-biphenylyl)-4-{[(2-methoxy-1-methylethyl)amino]methyl}benzamide]
34 | 23 nM | 2100 nM | Nc1ccc(-c2ccccc2F)cc1NC(=O)c1ccc(CNc2ccncc2)cc1 [Example 67, N-(4-amino-2′-fluoro-3-biphenylyl)-4-[(4-pyridinylamino)methyl]benzamide]
